Like-named read-outs stand apart in the source and are kept apart here.
Experiments:
[1] = tested on: brain PME(s-τc) and PCr levels; assay: 31P MRSI of brain metabolite levels in two depressed elderly subjects treated with ALCAR for 12 weeks; format: in vivo, human; conditions: for increase of prefrontal PCr levels with ALCAR treatment: prefrontal region
Source text: Phosphorus magnetic resonance spectroscopic imaging (^31P MRSI) analysis of two depressed elderly subjects treated with ALCAR for 12 weeks are compared with those of six normal non-demented, non-depressed subjects.
(§1) A twelve-week, open, clinical, ^31P MRSI study design was used to examine the possible effects of ALCAR on brain metabolism and depressive symptomatology in non-demented geriatric major depressive disorder (NDG-MDD). Two depressed, non-demented [Folstein Mini-Mental State Exam (MMSE)>24)] male subjects, were compared with six age, social-economic status, and medically matched non-demented controls (all male, mean age of 73.6±3.6 years, range 69.7-78.2 years). The two elderly depressed subjects completed baseline Structural Clinical Interview of DSM-IV (SCID) I/P version 2.0, HDRS (17 item), MMSE, UKU Side Effect Rating Scale (UKU), and Cumulative Illness Rating Scale (CIRS) to assess medical burden, baseline physical, ECG, and, laboratory tests for hematology, urine analysis, immunopathology, and blood chemistry. Follow-up visits for the depressed subjects were done every other week for 12 weeks. Efficacy (psychiatric evaluation) was assessed by changes in the HDRS which was performed at baseline and every other week for 12 weeks along with secondary measures (MMSE; CIRS; and UKU), whereas the CIRS was performed at baseline, 6, and 12 weeks. Physical examinations and EKGs were performed at baseline, 6, and 12 weeks. The baseline MR evaluation was scheduled and completed prior to the administration of ALCAR. Follow-up MR evaluations were at 6 and 12 weeks. Acetyl-L-carnitine was administered in the form of oral tablets containing 590 mg of acetyl-L-carnitine hydrochloride (500 mg acetyl-L-carnitine). The dosage regimen was fixed at three grams of acetyl-L-carnitine given two tablets three times a day for 12 weeks.
^31P MRSI acquisition—A custom built, doubly tuned transmit/receive volume head coil was used to acquire the ^1H MRI and 2D ^31P MRSI data on a GE Signa 1.5 T whole body MR imager. First, sets of axial and sagittal scout MR images were collected. […] A self-refocused spin echo pulse sequence with an effective flip range of 60° and an echo time of 2.5 ms, was used to acquire the ^31P MRSI (360 mm field of view, 30 mm slice thickness, 8×8 phase encoding steps [45×45×30 mm^3 nominal voxel dimensions], 2 s TR, 1024 data points, 4.0 kHz spectral bandwidth and 16 NEX).
MRSI post-processing and quantification—To optimize the right and left voxel positions for the six regions, the 8×8 ^31P grid was shifted with respect to the anatomical MRI and a mild spatial apodization (i.e., Fermi window with 90% diameter and 5% transition width) was applied prior to the inverse Fourier transform. The remaining processing steps were 100% automated. A 5 Hz exponential apodization was applied and the PME, phosphodiester (PDE), PCr, α-, γ-, and β-ATP, and inorganic orthophosphate (Pi), were modeled in the time domain with exponentially damped sinusoids and by omitting the first 2.75 ms of the free induction decay (FID) using the Marquardt-Levenberg algorithm. This approach ensured that the PME and PDE resonances primarily reflected the freely mobile, short correlation time (s-τc), water soluble PME(s-τc) and PDE(s-τc) metabolites without the influence of relatively broad underlying signals within the PME and PDE spectral region. […]

[2] = tested on: geriatric depressed subjects; conditions: cited from earlier work; for day 60 HDRS: 3.0 gm/day
rat brain = assay: Effect of ALCAR on in vitro 31P MRS brain metabolite and phospholipid levels under normoxia and brief hypoxia; format: in vivo, Fischer 344 rats; conditions: for PCr levels: non-significant; for Phosphatidylserine (PtdS) levels, change: p<0.01
Description: FIG. 4 is a block diagram illustrating an effect of ALCAR on in vitro ^31P MRS α-GP and PCr levels under hypoxic (30 seconds) and normoxic conditions in Fischer 344 rats.
FIG. 5 is a block diagram illustrating an effect of ALCAR on in vitro ^31P MRS phospholipid levels under hypoxic and normoxic conditions in Fischer 344 rats.
The rat brain responds differentially to brief energetic stress (30 seconds of hypoxia) depending on the age of the animal. The effect of ALCAR (75 mg/kg animal weight injected intraperitoneally 1 hour before sacrificing the animal) on both normoxic rat brain and rat brain exposed to brief hypoxia (30 seconds) was investigated (FIGS. x and x). These studies were conducted on aged rats (30 months) to provide possible insights into human aged brain and MDD.

brain PME levels = assay: In vivo 31P MRSI in two young subjects with MDD; parameters: species or system human; conditions: 2 young MDD subjects; treatment with ALCAR
Source text: As part of an ongoing ^31P-^1H MRSI study of never-medicated, first-episode schizophrenia subjects three ^31P MRSI spectra on 2 MDD subjects (1 person, 1 person, 24∀2.3 years) were obtained. The MDD spectral results are compared with those obtained from 13 controls (6 males; 3 white, 2 African-American, 1 Asian and 7 females; 4 white, 3 African-American; 21∀1.0 years). PME levels in the MDD subjects were increased by approximately 15% (p=0.13) while there were decreases in the levels of PDE (approx. −7%; p=0.08), PCr (approx. −5%, p=0.61), and β-ATP (approx. −3%, p=0.87) (FIG. 6). Treatment with ALCAR lowered PME levels in the MDD subjects.

Aβ(1-40) peptide = target: T1, Aβ(1-40) peptide (Homo sapiens, UniProt P05067); assay: Acetylation of Aβ(1-40) peptide by ALCAR; format: biochemical
T1 construct: the Aβ(1-40) peptide derived from the ubiquitous protein, amyloid precursor protein

[3] = tested on: canine model of complete, global cerebral ischemia and reperfusion; conditions: versus vehicle-treated control animals; p=0.0037; Rosenthal et al. 1992; cited from earlier work
[4] = tested on: non-demented geriatric major depressive disorder (NDG-MDD) subjects; assay: Twelve-week open clinical study of ALCAR in geriatric major depressive disorder: HDRS, CIRS, side effects; format: in vivo, human; conditions: for HDRS score: oral
Source text: as §1
The statistical analysis was done using the Statview (SAS Institute, Inc.) software package. The pearson t correlation test used to correlate between variables.

T1 sequence (P05067 672-711 limits assumed): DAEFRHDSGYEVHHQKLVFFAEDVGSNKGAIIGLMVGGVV

## CC(=O)O[C@H](CC(=O)[O-])C[N+](C)(C)C [ALCAR, acetyl-L-carnitine]
[1]; after 12 weeks of ALCAR treatment, compared with normal subjects, p=0.05
  PME(s-τc) levels in the superior temporal regions: elevated
[1]; after 12 weeks of ALCAR treatment, compared with normal subjects, p=0.001, 0.022, 0.027
  PCr levels in the prefrontal, basal ganglia and occipital regions: elevated
[1]; baseline 1.5 to 2.0 SD higher than mean of controls, with ALCAR treatment
  prefrontal PME(s-τc) levels: normalized
[1]; first of the two depressed subjects (respectively)
  increase of prefrontal PCr levels with ALCAR treatment: 27%
[1]; second of the two depressed subjects (respectively)
  increase of prefrontal PCr levels with ALCAR treatment: 31%
[2]; Bella et al. 1990, baseline HDRS 22, placebo day 60 = 20
  day 60 HDRS: 11
[2]; Fulgente et al. 1990, baseline HDRS 25, placebo day 60 = 22
  day 60 HDRS: 12
[2]; Garzya et al. 1990, 1.5 gm/day, ages 70-80 years
  HDRS: significant beneficial effects
[2]; Gecele et al. 1991, 2 gm/day, p<0.001, p<0.001, p<0.01
  mean cortisol levels and 12 am and 4 pm cortisol levels: significant reduction
[2]; Gecele et al. 1991, 2 gm/day, p<0.001
  HDRS: significant improvement
[2]; Nasca et al. 1989, day 40 of treatment, baseline HDRS 44.9, p<0.001
  HDRS scores: significant improvement
[2]; Tempesta et al. 1987, 2 gm/day
  side effects: no reported ALCAR side effects
[2]; Tempesta et al. 1987, open label cross over, 2 gm/day, subjects over 70 years
  HDRS scores: highly effective
[2]; Villardita et al. 1983, 1.5 gm/day, 40 days
  side effects: no side effects
[2]; Villardita et al. 1983, 1.5 gm/day, day 40, baseline HDRS 26.3, p<0.001
  Hamilton Depressive Rating Scale (HDRS): significant improvement
[2]; randomized double-blind studies, even at the higher dosages (up to 3.0 gm/day)
  tolerability: well tolerated
Rat brain; ALCAR/hypoxia
  Cardiolipin levels: non-significantly reduced
Rat brain; ALCAR/hypoxia (30 seconds), aged rats (30 months), 75 mg/kg i.p., p=0.01
  α-GP levels, change compared with controls: approximately +80%
Rat brain; ALCAR/hypoxia, p=0.07
  PCr levels: decrease
Rat brain; ALCAR/hypoxic
  Phosphatidylserine (PtdS) levels, change: approx. −75%
Rat brain; ALCAR/normoxia
  Cardiolipin levels: unchanged
  PCr levels: increase
  Phosphatidylserine (PtdS) levels, change: approx. −50%
Rat brain; ALCAR/normoxia, aged rats (30 months), 75 mg/kg intraperitoneally 1 hour before sacrifice
  α-GP levels: did not alter
Brain PME levels
  PME levels in the MDD subjects: lowered
Aβ(1-40) peptide
  acetylation of the Aβ(1-40) peptide: can acetylate lysine 28
[3]
  neurological deficit scores: significantly lower
[4]; both depressed subjects, 12 weeks, three grams per day
  Side effects from ALCAR treatment: mild
[4]; either depressed subject
  laboratory exams and EKG: No clinically significant abnormalities
[4]; subject #1
  Side effects from ALCAR treatment: dry mouth
[4]; subject #1, 6 weeks, baseline 7
  CIRS: 6
[4]; subject #1, 6 weeks, baseline 15, three grams acetyl-L-carnitine per day
  HDRS score: 1
[4]; subject #1, 12 weeks, baseline 7
  CIRS: 5
[4]; subject #1, 12 weeks, baseline 15, three grams per day
  HDRS score: 0
[4]; subject #2
  Side effects from ALCAR treatment: slight increase in perspiration
[4]; subject #2, 6 weeks, baseline 4
  CIRS: 4
[4]; subject #2, 6 weeks, baseline 20, three grams per day
  HDRS score: 17
[4]; subject #2, 12 weeks, baseline 4
  CIRS: 2
[4]; subject #2, 12 weeks, baseline 20, three grams per day
  HDRS score: 3
